Assay results taken from patent US7994336B2, “Azetidine compounds as orexin receptor antagonists” (Actelion Pharmaceuticals Ltd., priority 2006, dated 2011).

Key:
[1] = molecular target: T1, human orexin-1 receptor (Homo sapiens, UniProt O43613); assay: Intracellular calcium measurements (FLIPR), orexin receptor antagonistic activity; type: cell-based; settings: CHO cells expressing human orexin-1 receptor; 10 nM orexin-A as agonist; fluo-3 AM calcium signal; read-out: OX1 IC50
T1 construct: expressed in transfected cells; host or cells: CHO cells (grown under G418 selection)
T1 sequence (O43613 1-425): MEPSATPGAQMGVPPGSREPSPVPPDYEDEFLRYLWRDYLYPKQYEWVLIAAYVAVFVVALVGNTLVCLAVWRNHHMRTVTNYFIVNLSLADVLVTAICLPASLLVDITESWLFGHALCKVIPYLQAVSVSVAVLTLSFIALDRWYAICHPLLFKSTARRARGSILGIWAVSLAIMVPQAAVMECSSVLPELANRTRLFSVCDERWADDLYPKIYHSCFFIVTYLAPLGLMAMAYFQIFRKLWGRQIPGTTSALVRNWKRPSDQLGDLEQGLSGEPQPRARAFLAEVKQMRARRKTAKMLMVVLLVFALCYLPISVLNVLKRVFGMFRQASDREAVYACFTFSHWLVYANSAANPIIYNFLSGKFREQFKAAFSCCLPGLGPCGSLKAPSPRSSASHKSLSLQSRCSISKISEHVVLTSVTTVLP
Experimental: (§1) The orexin receptor antagonistic activity of the compounds of formula (I) is determined in accordance with the following experimental method.
(§2) Chinese hamster ovary (CHO) cells expressing the human orexin-1 receptor and the human orexin-2 receptor, respectively, are grown in culture medium (Ham F-12 with L-Glutamine) containing 300 μg/ml G418, 100 U/ml penicillin, 100 μg/ml streptomycin and 10% inactivated fetal calf serum (FCS). The cells are seeded at 80′000 cells/well into 96-well black clear bottom sterile plates (Costar) which have been precoated with 1% gelatine in Hanks' Balanced Salt Solution (HBSS). All reagents are from Gibco BRL. The seeded plates are incubated overnight at 37° C. in 5% CO2.
(§3) Human orexin-A as an agonist is prepared as 1 mM stock solution in methanol:water (1:1), diluted in HBSS containing 0.1% bovine serum albumin (BSA) and 2 mM HEPES for use in the assay at a final concentration of 10 nM.
(§4) Antagonists are prepared as 10 mM stock solution in DMSO, then diluted in 96-well plates, first in DMSO, then in HBSS containing 0.1% bovine serum albumin (BSA) and 2 mM HEPES.
(§5) On the day of the assay, 100 μl of loading medium (HBSS containing 1% FCS, 2 mM HEPES, 5 mM probenecid (Sigma) and 3 μM of the fluorescent calcium indicator fluo-3 AM (1 mM stock solution in DMSO with 10% pluronic acid) (Molecular Probes) is added to each well.
(§6) The 96-well plates are incubated for 60 min at 37° C. in 5% CO2. The loading solution is then aspirated and cells are washed 3 times with 200 μl HBSS containing 2.5 mM probenecid, 0.1% BSA, 2 mM HEPES. 100 μl of that same buffer is left in each well. Within the Fluorescent Imaging Plate Reader (FLIPR, Molecular Devices), antagonists are added to the plate in a volume of 50 μl, incubated for 20 min and finally 100 μl of agonist is added. Fluorescence is measured for each well at 1 second intervals, and the height of each fluorescence peak is compared to the height of the fluorescence peak induced by 10 nM orexin-A with buffer in place of antagonist. For each antagonist, IC50 value (the concentration of compound needed to inhibit 50% of the agonistic response) is determined.

[2] = molecular target: T2, human orexin-2 receptor (Homo sapiens, UniProt O43614); assay: as above; type: cell-based; settings: CHO cells expressing human orexin-2 receptor; 10 nM orexin-A as agonist; fluo-3 AM calcium signal; read-out: OX2 IC50
T2 construct: expressed in transfected cells; host or cells: CHO cells (grown under G418 selection)
T2 sequence (O43614 1-444): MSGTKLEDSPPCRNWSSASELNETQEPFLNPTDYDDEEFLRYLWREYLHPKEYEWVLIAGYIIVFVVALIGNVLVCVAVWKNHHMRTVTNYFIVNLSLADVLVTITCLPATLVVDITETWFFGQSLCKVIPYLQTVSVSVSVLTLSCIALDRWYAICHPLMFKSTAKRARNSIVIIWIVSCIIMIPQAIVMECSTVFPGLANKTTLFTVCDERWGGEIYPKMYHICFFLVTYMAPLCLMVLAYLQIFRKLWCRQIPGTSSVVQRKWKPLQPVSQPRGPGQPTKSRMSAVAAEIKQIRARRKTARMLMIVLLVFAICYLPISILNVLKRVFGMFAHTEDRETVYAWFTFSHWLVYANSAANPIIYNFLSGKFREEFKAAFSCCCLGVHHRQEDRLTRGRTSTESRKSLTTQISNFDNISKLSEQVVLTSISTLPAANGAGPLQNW
Experimental: as §1, §2, §3, §4, §5, §6

Row | IC50 [1] [nM] | IC50 [2] [nM] | Structure (SMILES)
1 | 75 | 25 | Cc1nc(C(=O)N2CCC2CNC(=O)c2c(C)nc3sccn23)c(-c2ccc(Cl)c(Cl)c2)s1 (racemic) [Example 32, (2RS)-6-Methyl-imidazo[2,1-b]thiazole-5-carboxylic acid{1-[5-(3,4-dichloro-phenyl)-2-methyl-thiazole-4-carbonyl]-azetidin-2-ylmethyl}-amide]
2 | 11 | 39 | Cc1cccc(-c2sc(C)nc2C(=O)N2CCC2CNC(=O)c2nc3scc(C)n3c2C)c1 (racemic) [Example 40, (2RS)-3,5-Dimethyl-imidazo[2,1-b]thiazole-6-carboxylic acid [1-(2-methyl-5-m-tolyl-thiazole-4-carbonyl)-azetidin-2-ylmethyl]-amide]
3 | 85 | 41 | Cc1cccc(-c2sc(C)nc2C(=O)N2CCC2CNC(=O)c2nc3sccn3c2C)c1 (racemic) [Example 42, (2RS)-5-Methyl-imidazo[2,1-b]thiazole-6-carboxylic acid [1-(2-methyl-5-m-tolyl-thiazole-4-carbonyl)-azetidin-2-ylmethyl]-amide]
4 | 391 | 57 | Cc1cccc(-c2sc(C)nc2C(=O)N2CCC2CNC(=O)c2c(C(F)(F)F)nc3sccn23)c1 (racemic) [Example 50, (2RS)-6-Trifluoromethyl-imidazo[2,1-b]thiazole-5-carboxylic acid [1-(2-methyl-5-m-tolyl-thiazole-4-carbonyl)-azetidin-2-ylmethyl]-amide]
5 | 3100 | 13 | Cc1cccc(-c2sc(C)nc2C(=O)N2CCC2CNC(=O)c2cccc3c2OCCN3C)c1 (racemic) [Example 54, (2RS)-4-Methyl-3,4-dihydro-2H-benzo[1,4]oxazine-8-carboxylic acid [1-(2-methyl-5-m-tolyl-thiazole-4-carbonyl)-azetidin-2-ylmethyl]-amide]
6 | 1200 | 19 | Cc1cccc(-c2sc(C)nc2C(=O)N2CCC2CNC(=O)c2cccc3c2OCCC3)c1 (racemic) [Example 57, (2RS)-Chroman-8-carboxylic acid [1-(2-methyl-5-m-tolyl-thiazole-4-carbonyl)-azetidin-2-ylmethyl]-amide]
7 | 1920 | 43 | Cc1cccc(-c2sc(C)nc2C(=O)N2CCC2CNC(=O)c2cnc3scc(C)n23)c1 (racemic) [Example 61, (2RS)-3-Methyl-imidazo[2,1-b]thiazole-5-carboxylic acid [1-(2-methyl-5-m-tolyl-thiazole-4-carbonyl)-azetidin-2-ylmethyl]-amide]
8 | 88 | 122 | COc1ccccc1C(=O)N1CC[C@H]1CNC(=O)c1cccc2occc12 [Example 9, (2S)-benzofuran-4-carboxylic acid [1-(2-methoxy-benzoyl)-azetidin-2-ylmethyl]-amide]
9 | 196 | 66 | Cc1nc(C(=O)N2CCC2CNC(=O)c2c(C)nc3sccn23)c(-c2cccc(F)c2)s1 (stereo not drawn) [Example 11, (2RS)-6-Methyl-imidazo[2,1-b]thiazole-5-carboxylic acid{1-[5-(3-fluoro-phenyl)-2-methyl-thiazole-4-carbonyl]-azetidin-2-ylmethyl}-amide]
10 | 70 | 11 | Cc1ccc(-c2ccccc2C(=O)N2CC[C@H]2CNC(=O)c2cccc3occc23)cc1C [Example 15, (2S)-Benzofuran-4-carboxylic acid [1-(3′,4′-dimethyl-biphenyl-2-carbonyl)-azetidin-2-ylmethyl]-amide]
11 | 41 | 7 | Cc1cccc(-c2sc(C)nc2C(=O)N2CC[C@H]2CNC(=O)c2c(Cl)nc3sccn23)c1 [Example 21, (2S)-6-Chloro-imidazo[2,1-b]thiazole-5-carboxylic acid [1-(2-methyl-5-m-tolyl-thiazole-4-carbonyl)-azetidin-2-ylmethyl]-amide]
12 | 10 | 5 | Cc1cccc(-c2sc(N)nc2C(=O)N2CC[C@H]2CNC(=O)c2c(Cl)nc3sccn23)c1 [Example 22, (2S)-6-Chloro-imidazo[2,1-b]thiazole-5-carboxylic acid [1-(2-amino-5-m-tolyl-thiazole-4-carbonyl)-azetidin-2-ylmethyl]-amide]
13 | 89 | 11 | COc1ccc(-c2sc(C)nc2C(=O)N2CCC2CNC(=O)c2c(C)nc3sccn23)cc1 (stereo not drawn) [Example 28, (2RS)-6-Methyl-imidazo[2,1-b]thiazole-5-carboxylic acid{1-[5-(4-methoxy-phenyl)-2-methyl-thiazole-4-carbonyl]-azetidin-2-ylmethyl}-amide]
14 | 2010 | 102 | Cc1nc(C(=O)N2CCC2CNC(=O)c2c(C)nc3sccn23)c(-c2ccc(F)c(F)c2)s1 (stereo not drawn) [Example 67, (2RS)-6-Methyl-imidazo[2,1-b]thiazole-5-carboxylic acid{1-[5-(3,4-difluoro-phenyl)-2-methyl-thiazole-4-carbonyl]-azetidin-2-ylmethyl}-amide]
15 | 1640 | 406 | Cc1cccc(-c2oc(C)nc2C(=O)N2CCC2CNC(=O)c2c(C)nc3sccn23)c1 (stereo not drawn) [Example 83, (2RS)-6-Methyl-imidazo[2,1-b]thiazole-5-carboxylic acid [1-5-(2-methyl-5-m-tolyl-oxazole-4-carbonyl)-azetidin-2-ylmethyl]-amide]
